Experimental data as given in patent US20260042755A1, “GPR6 INVERSE AGONISTS” (MapLight Therapeutics, Inc., priority 2022, published 2026).

How the values were obtained:
[1] = biological target: T1, GPR6 (Homo sapiens, UniProt P46095); assay: GPR6 antagonist functional cAMP assay (LANCE Ultra cAMP TR-FRET, CHO cells stably expressing GPR6); assay type: cell-based
T1 construct: expressed in transfected cells; host or cells: CHO cells
Summary of the method: (§1)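 Compounds, at 0.1% final DMSO, acted on the cells for 45 minutes at 37 °C in the presence of the phosphodiesterase inhibitor Ro 20-1724 (150 μM). After lysis and detection, plates were shaken 1 h at room temperature and emission at 665 nm was recorded. Normalized data gave IC50 values.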

[2] = biological target: T2, GPR3 (Homo sapiens, UniProt P46089); assay: GPR3 antagonist functional cAMP assay (LANCE Ultra cAMP TR-FRET, CHO cells stably expressing GPR3); assay type: cell-based
T2 construct: expressed in transfected cells; host or cells: CHO cells
Summary of the method: as §1

[3] = CHO cells stably expressing GPR6, cAMP assay (Example 24)
[4] = CHO cells stably expressing GPR3, cAMP assay (Example 24)
[5] = CHO cells stably expressing GPR6, cAMP assay
[6] = CHO cells stably expressing GPR3, cAMP assay

T1 sequence (P46095 whole entry): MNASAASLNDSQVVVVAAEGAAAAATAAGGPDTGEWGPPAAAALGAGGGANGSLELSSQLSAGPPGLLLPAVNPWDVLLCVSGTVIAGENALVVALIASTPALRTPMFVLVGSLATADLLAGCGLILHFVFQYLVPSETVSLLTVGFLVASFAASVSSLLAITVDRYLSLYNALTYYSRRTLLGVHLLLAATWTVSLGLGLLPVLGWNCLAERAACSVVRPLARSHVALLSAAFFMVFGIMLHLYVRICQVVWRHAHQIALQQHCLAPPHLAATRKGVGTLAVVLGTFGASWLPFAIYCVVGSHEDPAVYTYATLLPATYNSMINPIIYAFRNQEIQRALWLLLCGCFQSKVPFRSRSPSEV
T2 sequence (P46089 whole entry, species assumed): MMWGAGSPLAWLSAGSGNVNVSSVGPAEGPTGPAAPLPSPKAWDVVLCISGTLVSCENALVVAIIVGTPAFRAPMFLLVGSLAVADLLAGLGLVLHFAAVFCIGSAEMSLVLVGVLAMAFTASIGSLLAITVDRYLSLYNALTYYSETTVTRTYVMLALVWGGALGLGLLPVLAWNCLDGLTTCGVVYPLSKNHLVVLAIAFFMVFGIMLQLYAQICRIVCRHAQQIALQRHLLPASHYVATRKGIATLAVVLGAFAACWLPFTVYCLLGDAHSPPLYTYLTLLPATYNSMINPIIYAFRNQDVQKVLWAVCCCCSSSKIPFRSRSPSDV

| SMILES | IC50 [1, 3] | IC50 [2, 4] | IC50 ([1]; procedure of Example 24) | IC50 ([2]; procedure of Example 24) | also measured |
| --- | --- | --- | --- | --- | --- |
| COc1cc2nc(N3CCC(Oc4ccc(F)cc4F)CC3)c(-c3cnn(C)c3)nc2cn1 [Compound 410, 2-(4-(2,4-difluorophenoxy)piperidin-1-yl)-7-methoxy-3-(1-methyl-1H-pyrazol-4-yl)pyrido[3,4-b]pyrazine] | 1000 to 30000 nM | 1000 to 30000 nM | – | – | – |
| CC(=O)N1CCc2nc(N3CCC(Oc4ccc(F)cc4C#N)CC3)c(-c3cnn(C)c3)nc2C1 [Compound 497, 2-{1-[6-acetyl-3-(1-methyl-4-pyrazolyl)-5,6,7,8-tetrahydro-1,4,6-triaza-2-naphthyl]-4-piperidyloxy}-5-fluorobenzonitrile] | – | – | – | – | IC50 [1, 5]: 100 to 1000 nM; IC50 [2, 6]: 1000 to 30000 nM |
| COc1ccc(CN2CCN(c3nc4c(nc3-c3cnn(C)c3)CN(C(C)=O)CC4)CC2)cc1 [Compound 317, 1-(2-{4-[(4-methoxyphenyl)methyl]piperazin-1-yl}-3-(1-methyl-1H-pyrazol-4-yl)-5H,6H,7H,8H-pyrido[3,4-b]pyrazin-6-yl)ethan-1-one] | – | – | 1000 to 30000 nM | 1000 to 30000 nM | – |
| CC(=O)N1CCc2nc(N3CCC(Oc4ccc(F)cc4F)CC3)c(-c3cnn(C4COC4)c3)nc2C1 [Compound 77, 1-{2-[4-(2,4-difluorophenoxy)piperidin-1-yl]-3-[1-(oxetan-3-yl)-1H-pyrazol-4-yl]-5H,6H,7H,8H-pyrido [3,4-b]pyrazin-6-yl}ethan-1-one] | 100 to 1000 nM | 1000 to 30000 nM | – | – | – |
| CC(C)(O)[C@H](O)c1cc2nc(-c3cnn(C4CC4)c3)c(N3CCN(Cc4ccccc4F)CC3)nc2cn1 (single isomer, unassigned) [Compound 781] | – | – | 100 to 1000 nM | 1000 to 30000 nM | – |
| COc1cccc(-c2nc3cnccc3nc2N2CC3(CC(Oc4ccc(F)cc4F)C3)C2)n1 [Compound 104, 6-(2,4-difluorophenoxy)-2-[3-(6-methoxypyridin-2-yl)pyrido[3,4-b]pyrazin-2-yl]-2-azaspiro[3.3]heptane] | 1000 to 30000 nM | 1000 to 30000 nM | – | – | – |
| CCn1cc(-c2nc3c(nc2N2CCC(Oc4ccc(F)cc4F)CC2)CCN(C(C)=O)C3)cn1 [Compound 220, 1-{2-[4-(2,4-difluorophenoxy)piperidin-1-yl]-3-(1-ethyl-1H-pyrazol-4-yl)-5H,6H,7H,8H-pyrido[3,4-b]pyrazin-6-yl}ethan-1-one] | < 100 nM | 1000 to 30000 nM | – | – | – |
| CC(=O)N1CCc2nc(N3CCN(Cc4ccc(F)c(F)c4)CC3)c(-c3cnn(C)c3)nc2C1 [Compound 321, 1-(2-{4-[(3,4-difluorophenyl)methyl]piperazin-1-yl}-3-(1-methyl-1H-pyrazol-4-yl)-5H,6H,7H,8H-pyrido[3,4-b]pyrazin-6-yl)ethan-1-one] | – | – | 1000 to 30000 nM | 1000 to 30000 nM | – |
| COc1ncccc1-c1nc2c(nc1N1CCC(Oc3ccc(F)cc3F)CC1)CCN(C(C)=O)C2 [Compound 112, 1-{2-[4-(2,4-difluorophenoxy)piperidin-1-yl]-3-(2-methoxypyridin-3-yl)-5H,6H,7H,8H-pyrido[3,4-b]pyrazin-6-yl}ethan-1-one] | 1000 to 30000 nM | 1000 to 30000 nM | – | – | – |
| COCC(=O)N1CCc2nc(N3CCC(Oc4ccc(F)cc4F)CC3)c(-c3ccc(F)c(N)n3)nc2C1 [Compound 628, 1-{3-(6-amino-5-fluoro-2-pyridyl)-2-[4-(2,4-difluorophenoxy)-1-piperidyl]-5,6,7,8-tetrahydro-1,4,6-triaza-6-naphthyl}-2-methoxy-1-ethanone] | – | – | 100 to 1000 nM | 1000 to 30000 nM | – |
| CC(C)(O)[C@H](O)c1cc2nc(N3CCN(Cc4cc(F)ccc4F)CC3)c(-c3cnn(CF)c3)nc2cn1 (single isomer, unassigned) [Compound 726] | – | – | 100 to 1000 nM | 1000 to 30000 nM | – |
| CNc1cccc(-c2nc3c(nc2N2CCC(Oc4ccc(F)cc4F)CC2)CCN(C(C)=O)C3)n1 [Compound 117, 1-{2-[4-(2,4-difluorophenoxy)piperidin-1-yl]-3-[6-(methylamino)pyridin-2-yl]-5H,6H,7H,8H-pyrido[3,4-b]pyrazin-6-yl}ethan-1-one] | 100 to 1000 nM | 1000 to 30000 nM | – | – | – |
| Cc1cc2nc(N3CCC(Oc4ccc(F)cc4F)CC3)c(-c3cnn(C)c3)nc2cn1 [Compound 228, 4-(2,4-difluorophenoxy)-1-[7-methyl-3-(1-methyl-1H-pyrazol-4-yl)pyrido[3,4-b]pyrazin-2-yl]piperidine] | 100 to 1000 nM | 1000 to 30000 nM | – | – | – |
| COC[C@@H]1CN(Cc2ccc(F)cc2F)CCN1c1nc2ccncc2nc1-c1cnn(C)c1 (single isomer, unassigned) [Compound 240] | 1000 to 30000 nM | 1000 to 30000 nM | – | – | – |
| Cn1cc(-c2nc3cnc(N)cc3nc2N2CCC(Oc3ccc(F)cc3F)CC2)cn1 [Compound 277, 2-[4-(2,4-difluorophenoxy)piperidin-1-yl]-3-(1-methyl-1H-pyrazol-4-yl)pyrido[3,4-b]pyrazin-7-amine] | – | – | 100 to 1000 nM | 1000 to 30000 nM | – |
| O=S1(=Nc2ccc(F)cc2F)CCN(c2nc3ccncc3nc2-c2cn[nH]c2)CC1 [Compound 58, 4-(3-(1H-pyrazol-4-yl)pyrido[3,4-b]pyrazin-2-yl)-1-((2,4-difluorophenyl)imino)-1l6-thiomorpholine 1-oxide] | 1000 to 30000 nM | 1000 to 30000 nM | – | – | – |
| Cn1cc(-c2nc3cncc(N)c3nc2N2CCC(Oc3ccc(F)cc3F)CC2)cn1 [Compound 459, 2-[4-(2,4-difluorophenoxy)piperidin-1-yl]-3-(1-methyl-1H-pyrazol-4-yl)pyrido[3,4-b]pyrazin-8-amine] | 100 to 1000 nM | 1000 to 30000 nM | – | – | – |
| COCC(C)(O)c1cc2nc(N3CCC(Oc4ccc(F)cc4F)CC3)c(-c3cnn(C)c3)nc2cn1 (stereo not drawn) [Compound 567, 2-{2-[4-(2,4-difluorophenoxy)-1-piperidyl]-3-(1-methyl-4-pyrazolyl)-1,4,6-triaza-7-naphthyl}-1-methoxy-2-propanol] | – | – | – | – | IC50 [1, 5]: 100 to 1000 nM; IC50 [2, 6]: 1000 to 30000 nM |
| CC(=O)OC1CCN(c2nc3c(nc2-c2cnn(C)c2)CN(C(C)=O)CC3)C1 (stereo not drawn) [Compound 315, 1-[6-acetyl-3-(1-methyl-1H-pyrazol-4-yl)-5H,6H,7H,8H-pyrido[3,4-b]pyrazin-2-yl]pyrrolidin-3-yl acetate] | – | – | ≥ 30000 nM | 100 to 1000 nM | – |
| COc1ccc(CN2CCN(c3nc4c(nc3-c3cnn(C)c3)CN(C(C)=O)CC4)CC2)c(F)c1 [Compound 316, 1-(2-{4-[(2-fluoro-4-methoxyphenyl)methyl]piperazin-1-yl}-3-(1-methyl-1H-pyrazol-4-yl)-5H,6H,7H,8H-pyrido[3,4-b]pyrazin-6-yl)ethan-1-one] | – | – | 100 to 1000 nM | 1000 to 30000 nM | – |
| CC(C)(O)[C@@](C)(O)c1cc2nc(N3CCN(Cc4ccc(F)cc4F)CC3)c(-c3cnn(C(F)F)c3)nc2cn1 (single isomer, unassigned) [Compound 695] | – | – | 100 to 1000 nM | 1000 to 30000 nM | – |
| CC(=O)N1CCc2nc(N3CCN(Cc4ccccn4)CC3)c(-c3cnn(C)c3)nc2C1 [Compound 511, 1-[3-(1-methyl-4-pyrazolyl)-2-{4-[(2-pyridyl)methyl]-1-piperazinyl}-5,6,7,8-tetrahydro-1,4,6-triaza-6-naphthyl]-1-ethanone] | – | – | – | – | IC50 [1, 5]: ≥ 30000 nM; IC50 [2, 6]: ≥ 30000 nM |
| COCC(O)c1cc2nc(-c3cnn(C)c3)c(N3CCC(Oc4ccc(F)cc4F)CC3)nc2cn1 (stereo not drawn) [Compound 644, 1-{3-[4-(2,4-difluorophenoxy)-1-piperidyl]-2-(1-methyl-4-pyrazolyl)-1,4,6-triaza-7-naphthyl}-2-methoxy-1-ethanol] | – | – | < 100 nM | 100 to 1000 nM | – |
| CNC(=O)c1cccc(-c2nc3c(nc2N2CCC(Oc4ccc(F)cc4F)CC2)CCN(C(C)=O)C3)n1 [Compound 132, 6-{6-acetyl-2-[4-(2,4-difluorophenoxy)piperidin-1-yl]-5H,6H,7H,8H-pyrido[3,4-b]pyrazin-3-yl}-N-methylpyridine-2-carboxamide] | 1000 to 30000 nM | 1000 to 30000 nM | – | – | – |
| CCn1cc(-c2nc3c(nc2N2CCC(Oc4ccc(F)cc4F)CC2)CCN(C(=O)C(O)C(C)(C)O)C3)cn1 (stereo not drawn) [Compound 521, 1-{2-[4-(2,4-difluorophenoxy)-1-piperidyl]-3-(1-ethyl-4-pyrazolyl)-5,6,7,8-tetrahydro-1,4,6-triaza-6-naphthyl}-2,3-dihydroxy-3-methyl-1-butanone] | – | – | – | – | IC50 [1, 5]: 100 to 1000 nM; IC50 [2, 6]: 1000 to 30000 nM |
| COc1ccc(CNc2nc(-c3nc4c(nc3N3CCC(Cc5cc(F)ccc5F)CC3)CCN(C(C)=O)C4)ccc2F)cc1 [Compound 701, 1-(2-{4-[(2,5-difluorophenyl)methyl]-1-piperidyl}-3-(5-fluoro-6-{ [(p-methoxyphenyl)methyl]amino}-2-pyridyl)-5,6,7,8-tetrahydro-1,4,6-triaza-6-naphthyl)-1-ethanone] | – | – | 1000 to 30000 nM | 1000 to 30000 nM | – |
| CC(C)(O)C(C)(O)c1cc2nc(-c3cnn(C(F)F)c3)c(N3CCC(Oc4ccc(F)cc4F)CC3)nc2cn1 (stereo not drawn) [Compound 674, 2-{2-[1-(difluoromethyl)-4-pyrazolyl]-3-[4-(2,4-difluorophenoxy)-1-piperidyl]-1,4,6-triaza-7-naphthyl}-3-methyl-2,3-butanediol] | – | – | < 100 nM | 1000 to 30000 nM | – |
| CC(=O)N1CCc2nc(N3CCC(Oc4ccc(F)cc4F)CC3)c(-c3c(C)n[nH]c3C)nc2C1 [Compound 98, 1-{2-[4-(2,4-difluorophenoxy)piperidin-1-yl]-3-(3,5-dimethyl-1H-pyrazol-4-yl)-5H,6H,7H,8H-pyrido[3,4-b]pyrazin-6-yl}ethan-1-one] | ≥ 30000 nM | ≥ 30000 nM | – | – | – |
| Clc1ccc(Cl)c(CN2CCN(c3nc4cnccc4nc3-c3ncc[nH]3)CC2)c1 [Compound 64, 1-[(2,5-dichlorophenyl)methyl]-4-[2-(1H-imidazol-2-yl)pyrido[3,4-b]pyrazin-3-yl]piperazine] | 100 to 1000 nM | 100 to 1000 nM | – | – | – |
| COc1cnc(-c2nc3c(nc2N2CCC(Oc4ccc(F)cc4F)CC2)CCN(C(C)=O)C3)nc1 [Compound 191, 1-{2-[4-(2,4-difluorophenoxy)piperidin-1-yl]-3-(5-methoxypyrimidin-2-yl)-5H,6H,7H,8H-pyrido[3,4-b]pyrazin-6-yl}ethan-1-one] | 1000 to 30000 nM | 1000 to 30000 nM | – | – | – |
